Patent US8691753B2 (priority 2009, dated 2014)
Where two headings read alike, the source gives them in different places.

Tests used:
Format in all cases: biochemical
[1] = biological target: MMP-9h (Homo sapiens (Human), UniProt P14780); test: Inhibition constant (Ki) on MMP-9h; details: human MMP-9
Excerpt: (§1) The inhibition constant Ki of these compounds has been determined according to the protocol described by Devel et al, 2006, J. Biol. Chem. (7).
(§2) In this table I and also in table II below, “h” corresponds to human. All of the compounds have therefore been evaluated on human MMPs.

[2] = biological target: MMP-3h (Homo sapiens (Human), UniProt P08254); test: Inhibition constant (Ki) on MMP-3h; details: human MMP-3
Sequence of MMP-3h (P08254 100-477): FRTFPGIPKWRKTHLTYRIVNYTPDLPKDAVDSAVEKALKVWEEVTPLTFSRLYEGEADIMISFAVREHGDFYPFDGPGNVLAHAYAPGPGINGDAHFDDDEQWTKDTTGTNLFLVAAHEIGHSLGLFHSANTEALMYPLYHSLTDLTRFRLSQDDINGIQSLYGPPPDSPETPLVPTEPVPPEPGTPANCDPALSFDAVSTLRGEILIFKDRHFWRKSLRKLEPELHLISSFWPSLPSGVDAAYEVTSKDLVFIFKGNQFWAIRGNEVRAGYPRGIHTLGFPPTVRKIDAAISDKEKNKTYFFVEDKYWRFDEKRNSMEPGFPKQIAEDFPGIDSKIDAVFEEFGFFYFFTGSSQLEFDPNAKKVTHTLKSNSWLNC
Excerpt: as §1, §2

[3] = biological target: MMP-2h (Homo sapiens (Human), UniProt P08253); test: Inhibition constant (Ki) on MMP-2h; details: human MMP-2
Sequence of MMP-2h (P08253 110-660): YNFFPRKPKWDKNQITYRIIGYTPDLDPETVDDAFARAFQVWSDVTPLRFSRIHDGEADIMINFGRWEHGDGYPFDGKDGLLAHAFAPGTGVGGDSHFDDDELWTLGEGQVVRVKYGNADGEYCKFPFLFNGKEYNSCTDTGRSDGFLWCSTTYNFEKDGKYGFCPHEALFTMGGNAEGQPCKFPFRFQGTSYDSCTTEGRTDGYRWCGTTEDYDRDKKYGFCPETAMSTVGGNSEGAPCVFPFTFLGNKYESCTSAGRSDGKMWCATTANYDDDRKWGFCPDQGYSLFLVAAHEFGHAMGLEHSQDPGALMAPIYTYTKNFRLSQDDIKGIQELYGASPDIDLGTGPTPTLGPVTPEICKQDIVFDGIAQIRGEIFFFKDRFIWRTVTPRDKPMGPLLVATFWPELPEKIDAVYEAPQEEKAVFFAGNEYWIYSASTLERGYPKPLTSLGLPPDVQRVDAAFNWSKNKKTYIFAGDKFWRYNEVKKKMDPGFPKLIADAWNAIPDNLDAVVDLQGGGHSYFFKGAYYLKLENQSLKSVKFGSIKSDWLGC
Excerpt: as §1, §2

[4] = biological target: MMP-14h (Homo sapiens (Human), UniProt P50281); test: Inhibition constant (Ki) on MMP-14h; details: human MMP-14
Excerpt: as §1, §2

[5] = biological target: MMP-10h (Homo sapiens (Human), UniProt P09238); test: Inhibition constant (Ki) on MMP-10h; details: human MMP-10
Sequence of MMP-10h (P09238 99-476): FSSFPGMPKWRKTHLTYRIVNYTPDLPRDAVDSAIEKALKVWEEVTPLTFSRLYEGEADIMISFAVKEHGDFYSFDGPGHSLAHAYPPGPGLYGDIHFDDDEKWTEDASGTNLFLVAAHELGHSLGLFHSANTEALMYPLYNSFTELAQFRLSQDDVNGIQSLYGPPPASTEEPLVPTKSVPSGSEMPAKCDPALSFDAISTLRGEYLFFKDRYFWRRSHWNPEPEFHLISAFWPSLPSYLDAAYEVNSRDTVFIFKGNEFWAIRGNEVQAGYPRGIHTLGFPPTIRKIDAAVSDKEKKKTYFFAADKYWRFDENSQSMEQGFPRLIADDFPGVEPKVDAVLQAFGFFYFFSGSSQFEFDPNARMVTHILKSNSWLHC

[6] = biological target: MMP-8h (Homo sapiens (Human), UniProt P22894); test: Inhibition constant (Ki) on MMP-8h; details: human MMP-8
Sequence of MMP-8h (P22894 101-467): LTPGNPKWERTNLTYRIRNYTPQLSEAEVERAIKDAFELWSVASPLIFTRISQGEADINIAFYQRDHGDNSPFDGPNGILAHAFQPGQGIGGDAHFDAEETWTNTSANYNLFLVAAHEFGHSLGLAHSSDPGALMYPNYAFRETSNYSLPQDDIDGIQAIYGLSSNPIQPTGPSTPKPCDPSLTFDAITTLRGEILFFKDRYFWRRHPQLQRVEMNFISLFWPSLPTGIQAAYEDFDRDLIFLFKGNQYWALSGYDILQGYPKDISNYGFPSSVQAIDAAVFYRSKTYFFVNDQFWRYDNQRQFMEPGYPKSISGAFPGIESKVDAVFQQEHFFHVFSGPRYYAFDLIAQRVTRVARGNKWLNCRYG

[7] = biological target: MMP-12h (Homo sapiens (Human), UniProt P39900); test: Inhibition constant (Ki) on MMP-12h; details: human MMP-12
Sequence of MMP-12h (P39900 106-470): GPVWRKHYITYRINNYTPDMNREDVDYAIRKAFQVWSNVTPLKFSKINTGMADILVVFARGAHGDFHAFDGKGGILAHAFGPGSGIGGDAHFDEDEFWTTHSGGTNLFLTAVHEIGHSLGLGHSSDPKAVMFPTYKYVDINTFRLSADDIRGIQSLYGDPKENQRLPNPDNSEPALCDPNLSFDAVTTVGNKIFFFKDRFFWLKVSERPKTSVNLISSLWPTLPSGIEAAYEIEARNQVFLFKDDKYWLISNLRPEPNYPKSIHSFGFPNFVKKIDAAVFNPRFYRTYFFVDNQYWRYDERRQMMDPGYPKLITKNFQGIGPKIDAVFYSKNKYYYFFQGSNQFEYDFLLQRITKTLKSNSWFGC

[8] = biological target: MMP-13h (Homo sapiens (Human), UniProt P45452); test: Inhibition constant (Ki) on MMP-13h; details: human MMP-13
Excerpt: as §1, §2

Sequence of MMP-9h (P14780 94-707): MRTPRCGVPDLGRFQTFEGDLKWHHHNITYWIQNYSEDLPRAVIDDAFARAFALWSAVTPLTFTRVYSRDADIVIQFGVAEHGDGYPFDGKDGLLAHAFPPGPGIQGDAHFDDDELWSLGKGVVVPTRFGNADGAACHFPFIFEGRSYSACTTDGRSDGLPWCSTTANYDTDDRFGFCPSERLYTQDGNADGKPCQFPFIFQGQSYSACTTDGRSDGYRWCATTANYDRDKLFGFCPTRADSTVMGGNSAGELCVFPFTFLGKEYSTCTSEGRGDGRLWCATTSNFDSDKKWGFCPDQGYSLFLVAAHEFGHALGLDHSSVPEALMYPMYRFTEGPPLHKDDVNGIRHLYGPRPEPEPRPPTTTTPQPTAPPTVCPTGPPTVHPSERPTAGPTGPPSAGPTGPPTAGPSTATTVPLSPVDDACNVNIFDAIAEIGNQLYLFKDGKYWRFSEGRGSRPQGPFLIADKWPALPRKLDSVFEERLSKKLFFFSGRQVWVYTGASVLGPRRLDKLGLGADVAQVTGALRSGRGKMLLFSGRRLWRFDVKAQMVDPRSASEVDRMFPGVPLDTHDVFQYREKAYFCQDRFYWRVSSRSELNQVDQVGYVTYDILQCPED

Row | Compound | Ki ([1]; read-out: Ki MMP-9h) | Ki ([2]; read-out: Ki MMP-3h) | Ki ([3]; read-out: Ki MMP-2h) | Ki ([4]; read-out: Ki MMP-14h) | Ki ([5]; read-out: Ki MMP-10h) | Ki ([6]; read-out: Ki MMP-8h) | Ki ([7]; read-out: Ki MMP-12h) | Ki ([8]; read-out: Ki MMP-13h) | Ki [1] | Ki [2] | Ki [3] | Ki [4] | Ki [5] | Ki [6] | Ki [7] | Ki [8]
1 | NC(=O)[C@H](CCC(=O)O)NC(=O)CCc1cc(-c2ccc(-c3cccc(Cl)c3)cc2)no1 [Compound 4, (S)-5-amino-4-(3-(3-(3′-chlorobiphenyl-4-yl)isoxazol-5-yl)propanamido)-5-oxopentanoic acid] | 120 nM | 118 nM | 90 nM | > 1000 nM | 122 nM | 119 nM | 11.8 nM | 46 nM |  |  |  |  |  |  |  | 
2 | NC(=O)[C@@H](CCC(=O)O)NC(=O)[C@H](CCC(=O)O)NC(=O)CCc1cc(-c2ccc(-c3cccc(Cl)c3)cc2)no1 [Compound 5, (R)-5-amino-4-((S)-4-carboxy-2-(3-(3-(3′-chlorobiphenyl-4-yl)isoxazol-5-yl)propanamido)butanamido)-5-oxopentanoic acid] | > 1000 nM | 240 nM | 112 nM | > 1000 nM | 44 nM | 552 nM | 8.9 nM | 53 nM |  |  |  |  |  |  |  | 
3 | NC(=O)[C@H](CCC(=O)O)NC(=O)[C@@H](CCC(=O)O)NC(=O)CCc1cc(-c2ccc(-c3cccc(Cl)c3)cc2)no1 [Compound 6, (S)-5-amino-4-((R)-4-carboxy-2-(3-(3-(3′-chlorobiphenyl-4-yl)isoxazol-5-yl)propanamido)butanamido)-5-oxopentanoic acid] | > 5000 nM | > 1000 nM | 403 nM | > 10000 nM | 489 nM | > 5000 nM | 401 nM | 235 nM |  |  |  |  |  |  |  | 
4 | NC(=O)[C@@H](CCC(=O)O)NC(=O)[C@@H](CCC(=O)O)NC(=O)CCc1cc(-c2ccc(-c3cccc(Cl)c3)cc2)no1 [Compound 7, (R)-5-amino-4-((R)-4-carboxy-2-(3-(3-(3′-chlorobiphenyl-4-yl)isoxazol-5-yl)propanamido)butanamido)-5-oxopentanoic acid] | > 5000 nM | 897 nM | 538 nM | > 10000 nM | 111 nM | > 1000 nM | 268 nM | 114 nM |  |  |  |  |  |  |  | 
5 | NC(=O)[C@H](CC(=O)O)NC(=O)[C@H](CCC(=O)O)NC(=O)CCc1cc(-c2ccc(-c3cccc(Cl)c3)cc2)no1 [Compound 8, (S)-5-((S)-1-amino-3-carboxy-1-oxopropan-2-ylamino)-4-(3-(3-(3′-chlorobiphenyl-4-yl)isoxazol-5-yl)propanamido)-5-oxopentanoic acid] | > 1000 nM | 243 nM | 112 nM | > 1000 nM | 35 nM | 556 nM | 11 nM | 30 nM |  |  |  |  |  |  |  | 
6 | NC(=O)[C@H](CCC(=O)O)NC(=O)[C@H](CC(=O)O)NC(=O)CCc1cc(-c2ccc(-c3cccc(Cl)c3)cc2)no1 [Compound 9, (S)-5-amino-4-((S)-3-carboxy-2-(3-(3-(3′-chlorobiphenyl-4-yl)isoxazol-5-yl)propanamido)propanamido)-5-oxopentanoic acid] | > 1000 nM | 381 nM | 91 nM | > 5000 nM | 520 nM | 899 nM | 64 nM | 35 nM |  |  |  |  |  |  |  | 
7 | NC(=O)[C@H](CC(=O)O)NC(=O)[C@H](CC(=O)O)NC(=O)CCc1cc(-c2ccc(-c3cccc(Cl)c3)cc2)no1 [Compound 10, (S)-4-amino-3-((S)-3-carboxy-2-(3-(3-(3′-chlorobiphenyl-4-yl)isoxazol-5-yl)propanamido)propanamido)-4-oxobutanoic acid] | > 1000 nM | 85 nM | 86 nM | > 1000 nM | 93 nM | 649 nM | 59 nM | 18 nM |  |  |  |  |  |  |  | 
8 | NC(=O)[C@H](CCC(=O)O)NC(=O)[C@H](CCCC(=O)O)NC(=O)CCc1cc(-c2ccc(-c3cccc(Cl)c3)cc2)no1 [Compound 11, (S)-6-((S)-1-amino-4-carboxy-1-oxobutan-2-ylamino)-5-(3-(3-(3′-chlorobiphenyl-4-yl)isoxazol-5-yl)propanamido)-6-oxohexanoic acid] |  |  |  |  |  |  |  |  | > 10000 nM | 302 nM | > 1000 nM | > 10000 nM | 556 nM | > 1000 nM | 254 nM | 191 nM
9 | NC(=O)[C@H](CCCC(=O)O)NC(=O)[C@H](CCC(=O)O)NC(=O)CCc1cc(-c2ccc(-c3cccc(Cl)c3)cc2)no1 [Compound 12, (S)-6-amino-5-((S)-4-carboxy-2-(3-(3-(3′-chlorobiphenyl-4-yl)isoxazol-5-yl)propanamido)butanamido)-6-oxohexanoic acid] | > 1000 nM | 129 nM | 150 nM | > 5000 nM | 51 nM | 452 nM | 8.2 nM | 52 nM |  |  |  |  |  |  |  | 
10 | NC(=O)[C@H](CCCC(=O)O)NC(=O)[C@H](CCCC(=O)O)NC(=O)CCc1cc(-c2ccc(-c3cccc(Cl)c3)cc2)no1 [Compound 13, (S)-6-amino-5-((S)-5-carboxy-2-(3-(3-(3′-chlorobiphenyl-4-yl)isoxazol-5-yl)propanamido)pentanamido)-6-oxohexanoïque] |  |  |  |  |  |  |  |  | 605 nM | 575 nM | > 1000 nM | 553 nM | > 5000 nM | 638 nM | 348 nM | 91 nM
11 | NC(=O)[C@H](CCC(=O)O)NC(=O)CCc1cc(-c2ccccc2)no1 [Compound 15, (S)-5-amino-5-oxo-4-(3-(3-phenylisoxazol-5-yl)propanamido)pentanoic acid] | > 1000 nM | > 10000 nM | 762 nM | > 1000 nM | > 5000 nM | 114 nM | 398 nM | > 1000 nM |  |  |  |  |  |  |  | 
12 | NC(=O)[C@H](CCC(=O)O)NC(=O)[C@H](CCC(=O)O)NC(=O)CCc1cc(-c2ccc(-c3ccccc3)cc2)no1 [Compound 16, (S)-5-amino-4-((S)-2-(3-(3-(biphenyl-4-yl)isoxazol-5-yl)propanamido)-4-carboxybutanamido)-5-oxopentanoic acid] |  |  |  |  |  |  |  |  | > 1000 nM | 78 nM | 83 nM | > 1000 nM | 114 nM | 383 nM | 3.4 nM | 60 nM
13 | NC(=O)[C@H](CCC(=O)O)NC(=O)[C@H](CC(=O)O)NC(=O)CCc1cc(-c2ccc(-c3ccccc3)cc2)no1 [Compound 17, (S)-5-amino-4-((S)-2-(3-(3-(biphenyl-4-yl)isoxazl-5-yl)propanamido)-3-carboxypropanamido)-5-oxopentanoic acid] | > 1000 nM | 699 nM | 65 nM | > 5000 nM | > 1000 nM | > 1000 nM | 53 nM | 36 nM |  |  |  |  |  |  |  | 
14 | NC(=O)[C@H](CC(=O)O)NC(=O)[C@H](CCC(=O)O)NC(=O)CCc1cc(-c2ccc(-c3ccccc3)cc2)no1 [Compound 18, (S)-5-((S)-1-amino-3-carboxy-1-oxopropan-2-ylamino)-4-(3-(3-(biphenyl-4-yl)isoxazol-5-yl)propanamido)-5-oxopentanoic acid] |  |  |  |  |  |  |  |  | > 1000 nM | 440 nM | 93 nM | > 1000 nM | 196 nM | 832 nM | 8 nM | 30 nM
15 | NC(=O)[C@H](CC(=O)O)NC(=O)[C@H](CC(=O)O)NC(=O)CCc1cc(-c2ccc(-c3ccccc3)cc2)no1 [Compound 19, (S)-4-amino-3-((S)-2-(3-(3-(biphenyl-4-yl)isoxazol-5-yl)propanamido)-3-carboxypropanamido)-4-oxobutanoic acid] | > 1000 nM | 750 nM | 52 nM | > 1000 nM | 527 nM | > 1000 nM | 54 nM | 24 nM |  |  |  |  |  |  |  | 
16 | NC(=O)CC[C@H](NC(=O)CCc1cc(-c2ccc(-c3ccccc3)cc2)no1)C(=O)N[C@@H](CCC(=O)O)C(N)=O [Compound 20, (S)-5-amino-4-((S)-5-amino-2-(3-(3-(biphenyl-4-yl)isoxazol-5-yl)propanamido)-5-oxopentanamido)-5-oxopentanoic acid] | > 1000 nM | > 1000 nM | 834 nM | > 10000 nM | > 5000 nM | > 1000 nM | 412 nM | 234 nM |  |  |  |  |  |  |  | 
17 | NC(=O)CC[C@H](NC(=O)[C@H](CCC(=O)O)NC(=O)CCc1cc(-c2ccc(-c3ccccc3)cc2)no1)C(N)=O [Compound 21, (S)-4-(3-(3-(biphenyl-4-yl)isoxazol-5-yl)propanamido)-5-((S)-1,5-diamino-1,5-dioxopentan-2-ylamino)-5-oxopentanoic acid] | > 1000 nM | 105 nM | 39.3 nM | > 1000 nM | 256 nM | 261 nM | 5.4 nM | 49 nM |  |  |  |  |  |  |  | 
18 | NC(=O)CC[C@H](NC(=O)[C@H](CCC(N)=O)NC(=O)CCc1cc(-c2ccc(-c3ccccc3)cc2)no1)C(N)=O [Compound 22, (S)-2-(3-(3-(biphenyl-4-yl)isoxazol-5-yl)propanamido)-N^1-((S)-1,5-diamino-1,5-dioxopentan-2-yl)pentanediamide] | > 1000 nM | > 10000 nM | > 1000 nM | > 10000 nM | > 10000 nM | > 1000 nM | 830 nM | 436 nM |  |  |  |  |  |  |  | 
